{"source": "the supplement of paper PMC10307832", "assay_in_all_cases": "relative viability (nuclei count vs DMSO), 5 days (fraction); higher = more cells survive", "key": {"[1]": {"system": "CAL-12T", "procedure,_shortened": "(§1)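 Relative viability equals treated-well nuclei counts divided by vehicle-well nuclei counts. Counts came from 4× images of lung cancer cell lines grown in 1536-well plates for 5 days after pin-tool dosing on the day after seeding. Dosing used one drug alone or a fixed anchor-drug dose plus five library-drug doses (not always all listed) in √10 steps, and values are medians of duplicate plates.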"}, "[2]": {"system": "NCI-H441", "procedure,_shortened": "as §1"}, "[3]": {"system": "HCC-15", "procedure,_shortened": "as §1"}, "[4]": {"system": "NCI-H1651", "procedure,_shortened": "as §1"}, "[5]": {"system": "NCI-H2085", "procedure,_shortened": "as §1"}, "[6]": {"system": "EKVX", "procedure,_shortened": "as §1"}, "[7]": {"system": "HCC-366", "procedure,_shortened": "as §1"}, "[8]": {"system": "NCI-H460", "procedure,_shortened": "as §1"}, "[9]": {"system": "NCI-H2023", "procedure,_shortened": "as §1"}, "[10]": {"system": "LOU-NH91", "procedure,_shortened": "as §1"}, "[11]": {"system": "NCI-H1734", "procedure,_shortened": "as §1"}, "[12]": {"system": "NCI-H838", "procedure,_shortened": "as §1"}, "[13]": {"system": "LCLC-103H", "procedure,_shortened": "as §1"}, "[14]": {"system": "NCI-H1355", "procedure,_shortened": "as §1"}, "[15]": {"system": "NCI-H1975", "procedure,_shortened": "as §1"}, "[16]": {"system": "BEN", "procedure,_shortened": "as §1"}, "[17]": {"system": "NCI-H1437", "procedure,_shortened": "as §1"}, "[18]": {"system": "NCI-H1563", "procedure,_shortened": "as §1"}, "[19]": {"system": "NCI-H358", "procedure,_shortened": "as §1"}, "[20]": {"system": "NCI-H1650", "procedure,_shortened": "as §1"}, "[21]": {"system": "HCC-44", "procedure,_shortened": "as §1"}, "[22]": {"system": "NCI-H1755", "procedure,_shortened": "as §1"}}}
{"smiles": "CC(C)Oc1cc(Nc2nc(N[C@@H](C)c3ccc(F)cn3)ncc2Cl)n[nH]1", "note": "[AZ23] + C[C@@H](Oc1cc(-c2cnn(C3CCNCC3)c2)cnc1N)c1c(Cl)ccc(F)c1Cl [Crizotinib] (partner 1 µM)", "values": [{"measurement": "relative viability", "setting": "[1]; first compound 0.01 µM", "result": 0.324}, {"measurement": "relative viability", "setting": "[1]; first compound 0.03162 µM", "result": 0.759}, {"measurement": "relative viability", "setting": "[1]; first compound 0.3162 µM", "result": 0.583}, {"measurement": "relative viability", "setting": "[2]; first compound 0.01 µM", "result": 1.15}, {"measurement": "relative viability", "setting": "[2]; first compound 0.03162 µM", "result": 0.914}, {"measurement": "relative viability", "setting": "[2]; first compound 0.3162 µM", "result": 0.774}, {"measurement": "relative viability", "setting": "[3]; first compound 0.01 µM", "result": 1.1}, {"measurement": "relative viability", "setting": "[3]; first compound 0.03162 µM", "result": 0.881}, {"measurement": "relative viability", "setting": "[3]; first compound 0.3162 µM", "result": 0.884}, {"measurement": "relative viability", "setting": "[4]; first compound 0.01 µM", "result": 0.94}, {"measurement": "relative viability", "setting": "[4]; first compound 0.03162 µM", "result": 0.97}, {"measurement": "relative viability", "setting": "[4]; first compound 0.3162 µM", "result": 0.875}, {"measurement": "relative viability", "setting": "[5]; first compound 0.01 µM", "result": 1.03}, {"measurement": "relative viability", "setting": "[5]; first compound 0.03162 µM", "result": 0.94}, {"measurement": "relative viability", "setting": "[5]; first compound 0.3162 µM", "result": 0.838}, {"measurement": "relative viability", "setting": "[6]; first compound 0.01 µM", "result": 1.05}, {"measurement": "relative viability", "setting": "[6]; first compound 0.03162 µM", "result": 1.03}, {"measurement": "relative viability", "setting": "[6]; first compound 0.3162 µM", "result": 1.03}, {"measurement": "relative viability", "setting": "[7]; first compound 0.01 µM", "result": 0.688}, {"measurement": "relative viability", "setting": "[7]; first compound 0.03162 µM", "result": 1.05}, {"measurement": "relative viability", "setting": "[7]; first compound 0.3162 µM", "result": 0.587}, {"measurement": "relative viability", "setting": "[8]; first compound 0.01 µM", "result": 0.827}, {"measurement": "relative viability", "setting": "[8]; first compound 0.03162 µM", "result": 1.04}, {"measurement": "relative viability", "setting": "[8]; first compound 0.3162 µM", "result": 0.834}, {"measurement": "relative viability", "setting": "[9]; first compound 0.03162 µM", "result": 0.825}, {"measurement": "relative viability", "setting": "[9]; first compound 0.3162 µM", "result": 0.616}, {"measurement": "relative viability", "setting": "[10]; first compound 0.01 µM", "result": 0.719}, {"measurement": "relative viability", "setting": "[10]; first compound 0.03162 µM", "result": 0.727}, {"measurement": "relative viability", "setting": "[10]; first compound 0.3162 µM", "result": 0.771}, {"measurement": "relative viability", "setting": "[11]; first compound 0.01 µM", "result": 0.713}, {"measurement": "relative viability", "setting": "[11]; first compound 0.03162 µM", "result": 0.782}, {"measurement": "relative viability", "setting": "[11]; first compound 0.3162 µM", "result": 0.76}, {"measurement": "relative viability", "setting": "[12]; first compound 0.01 µM", "result": 0.702}, {"measurement": "relative viability", "setting": "[12]; first compound 0.03162 µM", "result": 0.889}, {"measurement": "relative viability", "setting": "[12]; first compound 0.3162 µM", "result": 0.803}, {"measurement": "relative viability", "setting": "[13]; first compound 0.01 µM", "result": 1.13}, {"measurement": "relative viability", "setting": "[13]; first compound 0.03162 µM", "result": 1.13}, {"measurement": "relative viability", "setting": "[13]; first compound 0.3162 µM", "result": 1.13}, {"measurement": "relative viability", "setting": "[14]; first compound 0.01 µM", "result": 1.19}, {"measurement": "relative viability", "setting": "[14]; first compound 0.03162 µM", "result": 1.11}, {"measurement": "relative viability", "setting": "[14]; first compound 0.3162 µM", "result": 1.09}, {"measurement": "relative viability", "setting": "[15]; first compound 0.01 µM", "result": 1.44}, {"measurement": "relative viability", "setting": "[15]; first compound 0.03162 µM", "result": 0.953}, {"measurement": "relative viability", "setting": "[15]; first compound 0.3162 µM", "result": 1.09}, {"measurement": "relative viability", "setting": "[16]; first compound 0.01 µM", "result": 0.855}, {"measurement": "relative viability", "setting": "[16]; first compound 0.03162 µM", "result": 1.09}, {"measurement": "relative viability", "setting": "[16]; first compound 0.3162 µM", "result": 0.968}, {"measurement": "relative viability", "setting": "[17]; first compound 0.01 µM", "result": 1.21}, {"measurement": "relative viability", "setting": "[17]; first compound 0.03162 µM", "result": 0.996}, {"measurement": "relative viability", "setting": "[17]; first compound 0.3162 µM", "result": 1.03}, {"measurement": "relative viability", "setting": "[18]; first compound 0.01 µM", "result": 0.837}, {"measurement": "relative viability", "setting": "[18]; first compound 0.03162 µM", "result": 0.912}, {"measurement": "relative viability", "setting": "[18]; first compound 0.3162 µM", "result": 0.865}, {"measurement": "relative viability", "setting": "[19]; first compound 0.01 µM", "result": 0.522}, {"measurement": "relative viability", "setting": "[19]; first compound 0.03162 µM", "result": 0.781}, {"measurement": "relative viability", "setting": "[19]; first compound 0.3162 µM", "result": 0.654}, {"measurement": "relative viability", "setting": "[20]; first compound 0.01 µM", "result": 0.863}, {"measurement": "relative viability", "setting": "[20]; first compound 0.03162 µM", "result": 1.4}, {"measurement": "relative viability", "setting": "[20]; first compound 0.3162 µM", "result": 0.984}, {"measurement": "relative viability", "setting": "[21]; first compound 0.01 µM", "result": 0.934}, {"measurement": "relative viability", "setting": "[21]; first compound 0.03162 µM", "result": 0.952}, {"measurement": "relative viability", "setting": "[21]; first compound 0.3162 µM", "result": 0.826}, {"measurement": "relative viability", "setting": "[22]; first compound 0.01 µM", "result": 1.1}, {"measurement": "relative viability", "setting": "[22]; first compound 0.03162 µM", "result": 1.01}, {"measurement": "relative viability", "setting": "[22]; first compound 0.3162 µM", "result": 0.964}]}
